PubChem BioAssay (NCI)
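Where inhibition never reached the appropriate level, the endpoint shown equals the highest concentration tested. Otherwise, values were interpolated linearly from a five-concentration, 48-hour dose response in 96-well plates. TGI marks complete inhibition of growth.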 Where a SMILES comes first, the peptide text is derived from it. [ ]: non-standard residue; d: D form. The star is where a group is joined. Bn2Val = CC(C)[C@@H](C(=O)*)N(Cc1ccccc1)Cc1ccccc1; NMeV = CN[C@H](C(=O)O)C(C)C; X29 = COc1ccc(CN*)c(OC)c1; dNMeA = CN[C@H](C)C(=O)O; Boc = CC(C)(C)OC(=O)*; OBn = c1ccc(CO*)cc1

Tests used:
Assay in all cases: NCI tumour cell line growth inhibition, 48 h
MDA-N = tested on: MDA-N
UACC-257 melanoma = tested on: UACC-257 melanoma
NCI-H460 lung = tested on: NCI-H460 lung
U251 CNS = tested on: U251 CNS
SF-295 CNS = tested on: SF-295 CNS
HT29 colon = tested on: HT29 colon
IGROV1 ovarian = tested on: IGROV1 ovarian
HCT-116 colon = tested on: HCT-116 colon
SK-MEL-5 melanoma = tested on: SK-MEL-5 melanoma
OVCAR-5 ovarian = tested on: OVCAR-5 ovarian

SMILES	TGI (MDA-N)	TGI (UACC-257 melanoma)	TGI (NCI-H460 lung)	TGI (U251 CNS)	TGI (SF-295 CNS)	TGI (HT29 colon)	TGI (IGROV1 ovarian)	TGI (HCT-116 colon)	TGI (SK-MEL-5 melanoma)	TGI (OVCAR-5 ovarian)
Nc1ccc(Nc2cc(=O)[nH]c(=O)[nH]2)cc1	> 100 µM	> 100 µM	> 100 µM	> 100 µM	> 100 µM	> 100 µM	> 100 µM	> 100 µM	> 100 µM	
COC(=O)c1c(C)cccc1C1CN=NC12Cc1ccc(C)c(C)c1C2=O (stereo not given)	> 100 µM	> 100 µM	> 100 µM	> 100 µM	> 100 µM	> 100 µM	> 100 µM	45.6 µM		> 100 µM
CC(C)=CCOc1cc(NC(=S)c2ccsc2C)ccc1Cl	> 100 µM	> 100 µM	> 100 µM	> 100 µM	> 100 µM	> 100 µM	89.3 µM	> 100 µM	> 100 µM	> 100 µM
C=C[C@@]1(O)CCCC[C@@H]1CC(Sc1ccccc1)Sc1ccccc1	44.8 µM	39.6 µM	26.2 µM	31.9 µM	27.8 µM	36.9 µM	29.2 µM	31.4 µM	30.8 µM	32.9 µM
Cc1ccc(-c2nnc(CCCCCCCCc3nnc(-c4ccc(C)cc4O)n3N)n2N)c(O)c1	> 100 µM	> 100 µM	> 100 µM	> 100 µM	> 100 µM		> 100 µM	> 100 µM		> 100 µM
Cc1nc2n(c1/C=C1/C(=O)Nc3ccccc31)CCS2	44.4 µM	> 100 µM	> 100 µM	> 100 µM	> 100 µM	> 100 µM	> 100 µM	> 100 µM	> 100 µM	> 100 µM
C[N+](C)(C)C=Nc1cccc2c1CCCC2	> 100 µM	> 100 µM		> 100 µM	> 100 µM	> 100 µM	> 100 µM	> 100 µM	> 100 µM	> 100 µM
Cc1ccc(-n2cc(-c3ccc(Cl)cc3)c3c(NN)ncnc32)cc1	63.2 µM	16.1 µM	14.1 µM	15.6 µM	10.7 µM	19 µM	11.2 µM	9.1 µM	7.23 µM	43.2 µM
O=[N+]([O-])c1ccc2oc(=Nc3ccccc3)c(Nc3ccccc3)nc2c1	> 100 µM	> 100 µM	> 100 µM	> 100 µM	> 100 µM	> 100 µM	> 100 µM	> 100 µM	> 100 µM	> 100 µM
CC(C)(O)C1CC[C@]2(C)[C@H]3CC[C@@H]4[C@@]5(C)CCCC(C)(C)[C@@H]5CC[C@@]4(C)[C@]3(C)CC[C@@H]12 (stereo not given in full)	> 100 µM	> 100 µM	> 100 µM	> 100 µM	> 100 µM	> 100 µM	> 100 µM	> 100 µM	> 100 µM	> 100 µM
CC(=O)NC1=C(NCCCl)C(=O)c2ccccc2C1=O	38.3 µM	33.7 µM	> 100 µM	> 100 µM	> 100 µM	75.1 µM	> 100 µM	48.1 µM	30.5 µM	> 100 µM
Cc1ccc(S(=O)(=O)[C@@H](Cl)[C@H]2N=C(Cl)NN=C2c2ccccc2)cc1	74.4 µM	48.1 µM	> 100 µM	55.9 µM	> 100 µM	> 100 µM	55.4 µM	> 100 µM	34.5 µM	> 100 µM
O=S(=O)(c1ccc(-c2nnc(-c3ccc(F)cc3)o2)cc1)c1ccc(-c2nnc(-c3ccc(F)cc3)o2)cc1	> 100 µM	> 100 µM	> 100 µM	> 100 µM	> 100 µM	> 100 µM	> 100 µM	> 100 µM	> 100 µM	> 100 µM
COc1ccccc1N=Nc1c(O)c(S(=O)(=O)O)cc2cc(S(=O)(=O)O)ccc12	> 100 µM	> 100 µM		> 100 µM	> 100 µM	> 100 µM	> 100 µM	> 100 µM	> 100 µM	> 100 µM
Cn1c([C@H](C#N)C(=O)c2cc(O)ccc2[N+](=O)[O-])nc2ccccc21	> 100 µM	> 100 µM	> 100 µM	> 100 µM	> 100 µM	> 100 µM	> 100 µM	> 100 µM	> 100 µM	> 100 µM
CC(C)(C)CC(C)(C)NC(=S)NO	> 100 µM	> 100 µM	> 100 µM		> 100 µM	> 100 µM	> 100 µM	> 100 µM	> 100 µM	> 100 µM
Cc1nnc2n(c1=O)CCN2C	> 100 µM		> 100 µM	> 100 µM	> 100 µM	> 100 µM	> 100 µM	> 100 µM	> 100 µM	> 100 µM
CCOC(=O)C(NC(=O)CC)(Nc1ccc(S(=O)(=O)Nc2onc(C)c2C)cc1)C(F)(F)F (stereo not given)	> 100 µM	> 100 µM	> 100 µM	> 100 µM	> 100 µM	> 100 µM	> 100 µM	> 100 µM	> 100 µM	> 100 µM
O=S(=O)(O)c1cccc2cccc(N=Nc3c(O)ccc4ccccc34)c12	> 100 µM	> 100 µM	> 100 µM	> 100 µM	> 100 µM	> 100 µM	> 100 µM	> 100 µM	> 100 µM	> 100 µM
CN(C(=O)c1ccc2c(c1)sc1c(=O)n(C)c3ccccc3c12)c1ccccc1	> 100 µM	> 100 µM	> 100 µM	> 100 µM	> 100 µM	> 100 µM	> 100 µM	> 100 µM	> 100 µM	> 100 µM
CC12CCCCC1=[N+]([O-])C(C)(C)N2O (stereo not given)	> 100 µM	> 100 µM	> 100 µM	> 100 µM	> 100 µM	> 100 µM	> 100 µM	> 100 µM	> 100 µM	> 100 µM
Cc1c(OCc2ccccc2)c(=O)ccn1CCc1c[nH]c2ccccc12	79.9 µM	> 100 µM	> 100 µM	> 100 µM	> 100 µM	71.9 µM	> 100 µM	> 100 µM	35.3 µM	> 100 µM

SMILES	TGI (MDA-N)	TGI (UACC-257 melanoma)	TGI (NCI-H460 lung)	TGI (U251 CNS)	TGI (SF-295 CNS)	TGI (HT29 colon)	TGI (IGROV1 ovarian)	TGI (HCT-116 colon)	TGI (SK-MEL-5 melanoma)	TGI (OVCAR-5 ovarian)
COC(=O)c1c(CC(Cc2ccc3c(c2)CCCC3)C(=O)OC)ccc2c1CCCC2 (stereo not given)	> 100 µM	> 100 µM	> 100 µM	> 100 µM	> 100 µM	> 100 µM	> 100 µM	> 100 µM	> 100 µM	> 100 µM
COC(=O)C(=O)C(C(=O)C(=O)Nc1cccc([N+](=O)[O-])c1)c1nc2ccc(Cl)cc2[nH]c1=O (stereo not given)	> 100 µM	> 100 µM	> 100 µM	> 100 µM	> 100 µM	> 100 µM	> 100 µM	> 100 µM	> 100 µM	> 100 µM
NC(=O)c1cc(N(CCO)CCO)c([N+](=O)[O-])cc1[N+](=O)[O-]	> 100 µM	> 100 µM	> 100 µM	> 100 µM	> 100 µM	> 100 µM	> 100 µM	> 100 µM	> 100 µM	> 100 µM
CC(C)CC(NC(=O)OC(C)(C)C)C(=O)NC(CC(=O)OCc1ccccc1)C(=O)OCc1ccccc1 (stereo not drawn) (Boc-Leu-Asp(OBn)-OBn; configuration not given here)	> 100 µM	> 100 µM	> 100 µM	81.7 µM	> 100 µM	> 100 µM		> 100 µM	57.3 µM	> 100 µM
CN(C)c1ccc(/C=C/C(=O)N[C@@H]2C(=O)N3[C@@H]2SC(C)(C)[C@@H]3C(=O)O)cc1	> 100 µM	> 100 µM	> 100 µM	> 100 µM	> 100 µM	> 100 µM		> 100 µM	> 100 µM	> 100 µM
CCOC(=O)c1c(C)nc2c(c1-c1cn(-c3ccccc3)nc1-c1ccccc1)C(=O)c1ccccc1-2	> 100 µM	> 100 µM		> 100 µM	> 100 µM	> 100 µM	> 100 µM	> 100 µM	> 100 µM	> 100 µM
OCC(CCc1ccccc1I)C1=CCC2(CC1)OCCO2 (stereo not given)	36.5 µM	45.1 µM	57.7 µM	41.8 µM	32.1 µM	41.6 µM	39.7 µM		27.8 µM	34.1 µM
Cc1ccc(NC2=NCCO2)c2c1CCC2	38.5 µM		> 100 µM	> 100 µM	> 100 µM	> 100 µM	> 100 µM	80 µM	32.9 µM	> 100 µM
CS(=O)(=O)c1nc(-c2cc3c(c(S(C)(=O)=O)n2)CCC3)cc2c1CCCC2	> 100 µM	> 100 µM		> 100 µM	> 100 µM	> 100 µM	34.8 µM	> 100 µM	> 100 µM	> 100 µM
Cc1ccc(-c2cc(O)c3nc4ccccc4n3c2)cc1	> 100 µM	> 100 µM	> 100 µM	> 100 µM	> 100 µM	> 100 µM	> 100 µM	> 100 µM		
COc1ccc(CNC(=O)[C@@H]2CCCN2C(=O)[C@@H](C)N(C)C(=O)[C@H](C(C)C)N(C)C(=O)[C@@H](NC(=O)[C@H](C(C)C)N(Cc2ccccc2)Cc2ccccc2)C(C)C)c(OC)c1 (Bn2Val-V[NMeV][dNMeA]P-X29)	5.78 µM	11.9 µM	15.5 µM	5.21 µM	10.7 µM	3.26 µM	12.6 µM	9.62 µM		3.13 µM
CC1(C)C(CCO)CC1n1ccc(=O)[nH]c1=O (stereo not given)	> 100 µM	> 100 µM		> 100 µM	> 100 µM			> 100 µM	> 100 µM	> 100 µM
CCOC(=O)C(C)Sc1nnc(COc2ccccc2OC)n1-c1ccccc1 (stereo not given)		> 100 µM	32.2 µM	> 100 µM	> 100 µM	> 100 µM	> 100 µM	> 100 µM	> 100 µM	> 100 µM
CN1CN(c2ccccc2)C2(CCN(CCCCCCF)CC2)C1=O	> 100 µM	> 100 µM		> 100 µM	> 100 µM	> 100 µM	> 100 µM	> 100 µM	> 100 µM	> 100 µM
O=c1c2ccccc2nc(-c2ccccc2)n1NC(=S)Nc1ccc(Cl)cc1		> 100 µM	> 100 µM	> 100 µM	> 100 µM	> 100 µM	> 100 µM	> 100 µM	> 100 µM	> 100 µM
Cc1cc(NC(=O)C2C3C=CC(O3)C2C(=O)O)no1 (stereo not given)		64 µM	> 100 µM	53.8 µM	> 100 µM	> 100 µM	> 100 µM	32 µM	> 100 µM	> 100 µM
CCOC(=O)NNC(=O)NCc1ccccc1CNC(=O)NNC(=O)OCC	> 100 µM	> 100 µM	> 100 µM	> 100 µM		> 100 µM	> 100 µM	> 100 µM	> 100 µM	> 100 µM
Cc1cccc2c1c1ccc3c(c1n2C)C(=O)C=CC3=O		25 µM	37.8 µM	25.8 µM	30.9 µM	14 µM	32.5 µM	15.1 µM	29.6 µM	29.5 µM
O=C(O)CC[P+](c1ccccc1)(c1ccccc1)c1ccccc1	> 100 µM	> 100 µM		> 100 µM	> 100 µM	> 100 µM	> 100 µM	> 100 µM	42.2 µM	> 100 µM
CC(=O)OC1C2CCC3C(C)(O)C4CC(O)C(C)(C)C4(O)C(O)CC13CC2(C)O (stereo not given)	> 100 µM	> 100 µM			> 100 µM	> 100 µM	> 100 µM	> 100 µM	> 100 µM	> 100 µM
Cc1cc(C)nc(/C(=N\NC(N)=O)C(=O)Nc2nc3ccc(C)cc3s2)c1		> 100 µM	> 100 µM	> 100 µM	> 100 µM	> 100 µM	> 100 µM	> 100 µM	> 100 µM	> 100 µM
